Article PMC10672332, “Lecanicilliums A–F, Thiodiketopiperazine-Class Alkaloids from a Mangrove Sediment-Derived Fungus Lecanicillium kalimantanense” (Marine Drugs, 2023)
In brackets after ≈: the same amount, converted by molar mass. Read-outs that look alike come from different tables or passages of the source.

Legend:
[1] = Cytotoxicity, CCK-8 method; assay type: cell-based; details: human
Protocol: (§1) Cytotoxic activity was evaluated using the human lung adenocarcinoma cell line H1975 and human hepatocellular carcinoma cell line HepG-2, using the CCK-8 method as described in our previous study. Briefly, each of the test compounds was dissolved in DMSO and further diluted to give final concentrations of 80, 40, 20, 10, 5, 2.5, and 1.25 μM, respectively. H1975 cells or HepG-2 cells (5 × 10^3 […]) were seeded in 96-well plates and treated with compounds at the indicated concentration for 24 hours and then 10 μL CCK-8 reagent was added to each well. The plates were incubated at 37 °C for another 4 hours. Finally, the optical density was measured at a wavelength of 450 nm with a Bio-Rad microplate reader. Dose–response curves were generated, and the IC50 values were calculated from the linear portion of log dose–response curves.

Bacillus subtilis BS01 = assay: Antibacterial assay, micro broth dilution; assay type: cell-based; details: BS01, micro broth dilution, LB medium, 24 hours at 37 °C, read-out: Antibacterial Activity (MIC) B. subtilis
Protocol: (§2) The micro broth dilution method was used to evaluate the antibacterial activities of compounds 1–19 against the growth of eight common pathogens: Bacillus subtilis BS01, Micrococcus luteus, Escherichia coli ATCC 25922, Staphylococcus aureus ATCC 6538, S. aureus MRSA, Streptococcus agalactiae ATCC 13813, S. iniae, and Pseudomonas aeruginosa ATCC 9027 in 96-well polystyrene plates. Vancomycin and ciprofloxacin were used as positive controls. Briefly, wells containing 100 μL bacteria dilutions (OD600 = 0.01) in Luria–Bertani (LB) medium were supplemented with different concentrations of 1–19 (80, 40, 20, 10, 5, 2.5, 1.25, and 0.625 μg/mL), vancomycin, and ciprofloxacin (40, 20, 10, 5, 2.5, 1.25, 0.625, and 0.3125 μg/mL), respectively. The MICs were determined after 24 hours’ incubation at 37 °C with the tested compounds.

[2] = test system: Streptococcus agalactiae ATCC 13813; assay: Antibacterial assay, micro broth dilution; assay type: cell-based; details: ATCC13813, micro broth dilution, LB medium, 24 hours at 37 °C, read-out: Antibacterial Activity (MIC) S. agalactiae
Protocol: as §2

S. aureus MRSA = assay: Antibacterial assay, micro broth dilution; assay type: cell-based; details: Staphylococcus aureus, micro broth dilution, LB medium, 24 hours at 37 °C, read-out: Antibacterial Activity (MIC) MRSA
Protocol: as §2

Micrococcus luteus = assay: Antibacterial assay, micro broth dilution; assay type: cell-based; details: micro broth dilution, LB medium, 24 hours at 37 °C, read-out: Antibacterial Activity (MIC) M. luteus
Protocol: as §2

S. iniae = assay: Antibacterial assay, micro broth dilution; assay type: cell-based; details: Streptococcus iniae; micro broth dilution, LB medium, 24 hours at 37 °C; read-out: Antibacterial Activity (MIC) S. iniae
Protocol: as §2

[3] = test system: Pseudomonas aeruginosa ATCC 9027; assay: Antibacterial assay, micro broth dilution; assay type: cell-based; details: ATCC9027, micro broth dilution, LB medium, 24 hours at 37 °C, read-out: Antibacterial Activity (MIC) P. aeruginosa
Protocol: as §2

[4] = test system: Staphylococcus aureus ATCC 6538; assay: Antibacterial assay, micro broth dilution; assay type: cell-based; details: ATCC6538, micro broth dilution, LB medium, 24 hours at 37 °C, read-out: Antibacterial Activity (MIC) S. aureus
Protocol: as §2

[5] = test system: Escherichia coli ATCC 25922; assay: Antibacterial assay, micro broth dilution; assay type: cell-based; details: ATCC25922, micro broth dilution, LB medium, 24 hours at 37 °C, read-out: Antibacterial Activity (MIC) E. coli
Protocol: as §2

[6] = Cytotoxicity, CCK-8 method; assay type: cell-based; details: human; remark: listed apart in the source
Protocol: as §1

brine shrimps = assay: Brine shrimp lethality bioassay; assay type: in vivo; details: Table 3
Excerpt: The methods were the same as those used in our previous studies.

SMILES	IC50 at 24 h [1] [µM]	MIC (Bacillus subtilis BS01) [µg/mL]	MIC [2] [µg/mL]	MIC (S. aureus MRSA) [µg/mL]	MIC (Micrococcus luteus) [µg/mL]	MIC (S. iniae) [µg/mL]	MIC [3] [µg/mL]	MIC [4] [µg/mL]	MIC [5] [µg/mL]	IC50 at 24 h [6] [µM]	IC50 at 24 h ([1]; HepG-2 cells (hepatocellular carcinoma cell line), HepG-2 cells, CCK-8, 24 hours treatment, read-out: Cytotoxicity (IC50) against HepG-2) [µM]	IC50 at 24 h ([6]; H1975 cells (lung adenocarcinoma cell line), H1975 cells, CCK-8, 24 hours treatment, read-out: Cytotoxicity (IC50) against H1975) [µM]	Toxicity (TC50) Brine Shrimp (brine shrimps) [µg/mL]
CS[C@@]12CC3=COC=C[C@H](OC(C)=O)[C@H]3N1C(=O)[C@]1(SC)CC3=CC=C[C@H](O)[C@H]3N1C2=O [Compound 13, bisdethiobis(methylsulfanyl)apoaranotin]	> 80	> 80	> 80	> 80	> 80	> 80	> 80	> 80	> 80	> 80			
CS[C@@]1(Cc2ccccc2)NC(=O)[C@@](Cc2ccccc2)(SC)NC1=O [Compound 7, emethacin B]		> 80	> 80	> 80	> 80	> 80	> 80	> 80	> 80		> 80	16.9	
CSC12CC3=COC=CC(OC(C)=O)C3N1C(=O)C1(SC)CC34OC3C3OC3C(OC(C)=O)C4N1C2=O (centres unmarked) [Compound 3, Lecanicillium C]	> 80	> 80	> 80	> 80	> 80	> 80	> 80	> 80	> 80	> 80			>80
CS[C@@]12Cc3ccccc3N1C(=O)[C@]1(SC)CC3=COC=C[C@H](O)C3N1C2=O (some centres unmarked) [Compound 17, 12,12a-anhydro-desacetyl-bis-dethio-7a, 14a-di-(methylmercapto)-apoaranotin]	> 80	80 (≈ 192 µM)	70 (≈ 168 µM)	> 80	> 80	30 (≈ 72 µM)	> 80	> 80	> 80	35.2			
CSC12CC3=COC=CC(O)C3N1C(=O)C1(Cc3ccccc3O1)NC2=O (centres unmarked) [Compound 2, Lecanicillium B]	> 80	80 (≈ 207 µM)	> 80	> 80	60 (≈ 155 µM)	70 (≈ 181 µM)	> 80	> 80	> 80	> 80			>80
CS[C@@]12CC3=CC=C[C@H](O)[C@H]3N1C(=O)[C@]1(SC)CC3=COC=C[C@H](O)[C@H]3N1C2=O [Compound 14, bisdethiobis(methylsulfanyl)deacetylapoaranotin]	> 80	> 80	> 80	> 80	> 80	40 (≈ 92.1 µM)	> 80	> 80	> 80	> 80			>80
CS[C@@]12Cc3ccccc3N1C(=O)[C@]1(SC)CC3=COC=C[C@H](OC(C)=O)C3N1C2=O (some centres unmarked) [Compound 16, versicolor A]	> 80	70 (≈ 153 µM)	70 (≈ 153 µM)	> 80	> 80	> 80	> 80	> 80	> 80	7.2			
CS[C@@]12CC3=COC=C[C@H](OC(C)=O)[C@H]3N1C(=O)[C@]1(SC)CC3=COC=C[C@H](OC(C)=O)[C@H]3N1C2=O [Compound 8, bisdethiobis(methylsulfanyl)acetylaranotin]	> 80	> 80	> 80	> 80	> 80	> 80	> 80	> 80	> 80	> 80			
